Test results published in patent publication US9353090B2, “Heterocyclic carboxylic acids as activators of soluble guanylate cyclase” (Boehringer Ingelheim International GmbH, priority 2014, dated 2016).
pEC50: −log10 of the molar value. Converted amounts (≈) assume the structure as drawn.

Assays:
[1] = biological target: human soluble guanylate cyclase alpha 1 and beta 1 subunits (sGC) (Homo sapiens (Human), UniProt Q02108+Q02153); assay: sGC cellular activator assay (cGMP, HTRF), in the presence and absence of 50% human serum; assay type: cell-based; details: CHO cells stably expressing human sGC alpha 1/beta 1, preincubated with 40 microM ODQ; cGMP by HTRF; Table 2 does not state whether with or without 50% human serum
Outline: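 First, CHO-sGC (human α1β1) cells get 1 h ODQ at 40 microM with IBMX and 0.1% BSA. Finally, cGMP is quantified by HTRF and EC50 computed.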

[2] = physchem; details: kinetic from dmso stock
[3] = Human liver microsome (HLM) metabolic stability assay; assay type: in vitro ADME; details: human liver microsomes
Outline: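 Remaining parent measured by LC/MS/MS (ESI, MRM) at 5, 15, 30 and 60 min relative to 0 min. Incubation: 1 uM compound, HLMs, NADPH-started, 37° C., 60 min total, single replicate. Slope of ln(% remaining) gives t1/2 = 0.693/slope, then CLint, CLh and % Qh.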

[4] = pH 2.2, aqueous buffer, Solubility (pH 2.2)
[5] = pH 4.5, aqueous buffer, Solubility (pH 4.5)
[6] = pH 6.8, aqueous buffer, Solubility (pH 6.8)

human soluble guanylate cyclase alpha 1 and beta 1 subunits (sGC), sequence (Q02108 whole entry partner): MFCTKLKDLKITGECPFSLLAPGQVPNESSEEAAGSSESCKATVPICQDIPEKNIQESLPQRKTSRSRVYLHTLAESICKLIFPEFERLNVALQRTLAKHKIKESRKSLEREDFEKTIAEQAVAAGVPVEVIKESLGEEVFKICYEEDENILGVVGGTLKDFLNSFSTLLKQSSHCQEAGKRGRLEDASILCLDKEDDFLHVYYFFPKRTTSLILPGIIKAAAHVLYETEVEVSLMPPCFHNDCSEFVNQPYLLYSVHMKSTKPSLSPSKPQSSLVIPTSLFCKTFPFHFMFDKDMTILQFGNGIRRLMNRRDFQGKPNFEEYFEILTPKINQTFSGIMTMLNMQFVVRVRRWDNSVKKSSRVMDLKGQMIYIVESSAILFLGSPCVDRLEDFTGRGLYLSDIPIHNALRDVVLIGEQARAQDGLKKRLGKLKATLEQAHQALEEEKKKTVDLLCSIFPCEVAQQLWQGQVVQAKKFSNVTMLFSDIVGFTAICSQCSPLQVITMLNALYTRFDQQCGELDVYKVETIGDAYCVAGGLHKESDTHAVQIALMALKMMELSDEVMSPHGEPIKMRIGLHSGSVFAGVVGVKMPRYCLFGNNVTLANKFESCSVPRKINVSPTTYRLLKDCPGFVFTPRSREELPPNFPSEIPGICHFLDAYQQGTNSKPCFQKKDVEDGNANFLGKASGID
human soluble guanylate cyclase alpha 1 and beta 1 subunits (sGC), sequence (Q02153 whole entry): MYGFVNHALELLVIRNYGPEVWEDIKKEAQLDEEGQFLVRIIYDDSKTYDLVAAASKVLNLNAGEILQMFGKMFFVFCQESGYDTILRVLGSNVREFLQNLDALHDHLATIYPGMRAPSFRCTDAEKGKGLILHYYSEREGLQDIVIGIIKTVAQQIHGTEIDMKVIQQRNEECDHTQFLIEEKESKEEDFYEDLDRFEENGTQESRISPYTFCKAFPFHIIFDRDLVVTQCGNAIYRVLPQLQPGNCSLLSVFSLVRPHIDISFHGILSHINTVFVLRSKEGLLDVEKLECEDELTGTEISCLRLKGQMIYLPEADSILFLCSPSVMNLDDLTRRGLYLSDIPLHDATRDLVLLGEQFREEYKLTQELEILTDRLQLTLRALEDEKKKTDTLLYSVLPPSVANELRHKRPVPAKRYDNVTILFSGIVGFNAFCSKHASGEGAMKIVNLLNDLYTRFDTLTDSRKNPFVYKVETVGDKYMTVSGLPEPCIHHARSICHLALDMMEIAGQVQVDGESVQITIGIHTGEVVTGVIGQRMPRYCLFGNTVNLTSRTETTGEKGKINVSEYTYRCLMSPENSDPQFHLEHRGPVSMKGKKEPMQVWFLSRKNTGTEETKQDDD

Row | Structure (SMILES) | pEC50 [1] | solubility at 24 h [2, 4] | solubility at 24 h [2, 5] | solubility at 24 h [2, 6] | Metabolic stability (Qh %), % hepatic blood flow [3]
1 | COC[C@H]1N(c2cccc(-c3cccc(C(F)(F)F)c3OCc3cc(C)c4c(c3)CCN(C3COC3)C4)n2)C[C@@H]2C[C@@]21C(=O)O [Compound 227] | 8.05 | 142 µg/mL (≈ 228 µM) | 128 µg/mL (≈ 205 µM) | 138 µg/mL (≈ 221 µM) | 30%
2 | CCO[C@@H]1CN(c2nc(-c3cccc(C)c3OCc3cc4c(c(OC)c3)CN(C3CCOCC3)CC4)cs2)CC[C@@H]1C(=O)O [Compound 228] | 8.22 | 148 µg/mL (≈ 239 µM) | 114 µg/mL (≈ 183 µM) | 107 µg/mL (≈ 172 µM) | <24%
3 | CCO[C@@H]1CN(c2nc(-c3cc(C)ccc3OCc3cc4c(c(OC)c3)CN(C3CCOCC3)CC4)cs2)CC[C@@H]1C(=O)O [Compound 229] | 8.40 | 122 µg/mL (≈ 196 µM) | 116 µg/mL (≈ 187 µM) | 114 µg/mL (≈ 184 µM) | <24%
4 | CCO[C@@H]1CN(c2cccc(-c3cccc(C)c3OCc3cc4c(c(OC)c3)CN(C3CCOCC3)CC4)n2)CC[C@@H]1C(=O)O [Compound 230] | 8.22 | 131 µg/mL (≈ 213 µM) | 128 µg/mL (≈ 209 µM) | 120 µg/mL (≈ 194 µM) | 83%
5 | CCO[C@@H]1CN(c2cccc(-c3cc(C)ccc3OCc3cc4c(c(OC)c3)CN(C3CCOCC3)CC4)n2)CC[C@@H]1C(=O)O [Compound 231] | 7.89 | 126 µg/mL (≈ 205 µM) | 126 µg/mL (≈ 205 µM) | 121 µg/mL (≈ 196 µM) | 58%
6 | CCO[C@H]1CN(c2nc(-c3cccc(C)c3OCc3cc4c(c(OC)c3)CN(C3CCOCC3)CC4)cs2)CC[C@H]1C(=O)O [Compound 232] | 6.48 | 142 µg/mL (≈ 229 µM) | 131 µg/mL (≈ 211 µM) | 131 µg/mL (≈ 211 µM) | <24%
7 | CCO[C@H]1CN(c2nc(-c3cc(C)ccc3OCc3cc4c(c(OC)c3)CN(C3CCOCC3)CC4)cs2)CC[C@H]1C(=O)O [Compound 233] | 6.72 | 135 µg/mL (≈ 217 µM) | 124 µg/mL (≈ 200 µM) | 122 µg/mL (≈ 197 µM) | <24%
8 | CCO[C@H]1CN(c2cccc(-c3cccc(C)c3OCc3cc4c(c(OC)c3)CN(C3CCOCC3)CC4)n2)CC[C@H]1C(=O)O [Compound 234] | 6.59 | 128 µg/mL (≈ 207 µM) | 124 µg/mL (≈ 201 µM) | 117 µg/mL (≈ 190 µM) | 55%
9 | CCO[C@H]1CN(c2cccc(-c3cc(C)ccc3OCc3cc4c(c(OC)c3)CN(C3CCOCC3)CC4)n2)CC[C@H]1C(=O)O [Compound 235] | 6.17 | 128 µg/mL (≈ 208 µM) | 127 µg/mL (≈ 206 µM) | 119 µg/mL (≈ 193 µM) | 50%
10 | Cc1ccc(OCc2cc(C)c3c(c2)CCN(C2CCOCC2)C3)c(-c2csc(N3CC[C@H](C(=O)O)[C@H](C)C3)n2)c1 [Compound 236] | 7.18 | 141 µg/mL (≈ 245 µM) | 131 µg/mL (≈ 228 µM) | 129 µg/mL (≈ 225 µM) | <24%
11 | COC[C@H]1N(c2nccc(-c3cccc(C)c3OCc3cc(C)c4c(c3)CCN(C3CCOCC3)C4)n2)CC2C[C@@]21C(=O)O (stereo partly drawn) [Compound 237] | 7.38 | 156 µg/mL (≈ 260 µM) | 136 µg/mL (≈ 227 µM) | 143 µg/mL (≈ 238 µM) | <24%
12 | CCO[C@@H]1CN(c2nc(-c3cccc(C)c3OCc3cc(F)c4c(c3)CCN(C3CCOCC3)C4)cs2)CC[C@@H]1C(=O)O [Compound 238] | 8.40 | 112 µg/mL (≈ 183 µM) | 109 µg/mL (≈ 179 µM) | 109 µg/mL (≈ 178 µM) | <24%
13 | CCO[C@@H]1CN(c2cccc(-c3cccc(C)c3OCc3ccc4c(c3C)CCN(C3CCOCC3)CC4)n2)CC[C@@H]1C(=O)O [Compound 239] | 8.30 | 126 µg/mL (≈ 205 µM) | 123 µg/mL (≈ 200 µM) | 117 µg/mL (≈ 191 µM) | 87%
14 | CCO[C@@H]1CN(c2cccc(-c3cc(C)ccc3OCc3ccc4c(c3C)CCN(C3CCOCC3)CC4)n2)CC[C@@H]1C(=O)O [Compound 240] | 8.30 | 123 µg/mL (≈ 200 µM) | 118 µg/mL (≈ 193 µM) | 117 µg/mL (≈ 190 µM) | 73%
15 | CCO[C@@H]1CN(c2nc(-c3cccc(C)c3OCc3cc(C)c4c(c3F)CCN(C3CCOCC3)C4)cs2)CC[C@@H]1C(=O)O [Compound 241] | 8.70 | 129 µg/mL (≈ 207 µM) | 98.5 µg/mL (≈ 158 µM) | 92.2 µg/mL (≈ 148 µM) | 42.5%
